Laboratory results reported in patent publication US9926293B2, “Multivalent RAS binding compounds” (THE TRUSTEES OF COLUMBIA UNIVERSITY IN THE CITY OF NEW YORK, priority 2014, dated 2018).

Assays:
BJeLR (HRAS^G12V) cells = test: Gene expression analysis by RT-qPCR; assay type: cell-based
Procedure: FIG. 22A-FIG. 22D show BJeLR cells were treated with DMSO, 31 MEW44 at 5 μM and/or 25 μM alongside BJHLT treated with DMSO for one hour. Cells were lysed and the RNA was extracted, converted to cDNA and quantified by qPCR.
Gene Expression Analysis by RT-qPCR
Cells from six-well plates were trypsinized and centrifuged at 3,000 rpm for 3 minutes. The cell pellet was then lysed and the RNA was extracted using QIAshreader and RNAeasy extraction kits (QIAGEN) according to the manufacturer's protocol. 2 micrograms of RNA from each sample was then converted to cDNA using the TaqMan RT Kit (Applied Biosystems). Primers for Quantitative PCR (qPCR) were designed with Primer Express. qPCR was performed using Power SYBR Green Master Mix (Applied Biosystems) in a 96-well format, in triplicate, using an Applied Biosystems 7300 Cycler set to absolute quantification. Expression changes were computed using the ΔΔCt method with GAPDH as an internal reference gene. The primers used were as follows: urokinase-type plasminogen activator (uPA) Forward 5′ […] 3′ (SEQ ID NO: 54), reverse 5′ […] 3′ (SEQ ID NO: 55); matrix metalloprotease 9 (MMP9) forward 5′ […] 3′ (SEQ ID NO: 56), reverse 5′ […] 3′ (SEQ ID NO: 57); lactate dehydrogenase (LDH) forward 5′ […] 3′ (SEQ ID NO: 58), reverse 5′ […] 3′ (SEQ ID NO: 59); CMYC forward 5′ […] 3′ (SEQ ID NO: 60), reverse 5′ […] 3′ (SEQ ID NO: 61).

GppNHp-loaded RHEB = GppNHp-loaded RHEB (Homo sapiens, UniProt Q15382); test: Microscale thermophoresis on GppNHp-loaded RHEB; assay type: binding; conditions: MST, up to 190 μM
Chain of GppNHp-loaded RHEB (Q15382 whole entry): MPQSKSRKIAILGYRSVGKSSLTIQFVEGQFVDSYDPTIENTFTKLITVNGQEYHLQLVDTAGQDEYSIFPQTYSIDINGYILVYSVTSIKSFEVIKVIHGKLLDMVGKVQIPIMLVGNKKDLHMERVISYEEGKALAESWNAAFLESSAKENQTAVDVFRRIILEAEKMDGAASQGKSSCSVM
Procedure: KRAS^G12D (250 μM) in 25 mM HEPES, 100 mM sodium chloride, 2 mM TCEP with 20 mM EDTA and 1 mM GppNHp was shaken at 220 rpm at 30° C. to remove the endogenous nucleotide, The solution was placed on ice for 2 minutes prior to the addition of 65 mM MgCl2. After an additional 10 minutes incubation on ice, 200 uL of a 10 uM solution of KRAS^G12D was combined with 200 uL of a 20 uM solution of NT-647-NHS-ester dye (from a 652.4 μM stock). The protein/dye mixture was rotated at 4° C. for 30 minutes, before being separated from the excess dye and buffer exchanged into 25 mM Tris, 100 mM sodium chloride, 2 mM TCEP, and 5 mM MgCl2 via a nap-5 column. The test compounds were arrayed across a 16-point dilution series consisting of 1.5% DMSO with 25 mM Tris, 100 mM NaCl, 2 mM TCEP, 5 mM MgCl2 and 0.05% tween-20. Thermophoretic movement of the fluorescently labeled protein with the inhibitors was performed using a Monolith NT.115 (Nanotemper Technologies). RALA and RHOA were purchased commercially from Abcam (RALA CN:ab102555, RHOA CN:ab101594).
To provide evidence that the compound indeed was selective for RAS GTPases, MST binding measurements were performed on GppNHp-loaded RHEB, RHOA and RALA (FIG. 14J).

[1] = In vivo pharmacokinetic analysis; set-up: species or system male C57 adult mice; conditions: male, C57, mouse, 20 mg/kg, plasma over 12 hours
Procedure: In Vivo Pharmacokinetic Analysis
The dose formulation was prepared freshly in the morning of dosing day. A total of 42 male C57 adult mice, each approximately 25 grams in body weight, were administered at 20 mg/kg dose via a single IV bolus injection or a single oral gavage. Blood samples (approximately 400 μL) were collected from three mice per time point via terminal brachial bleed at pre-dose and 30 minutes, 1 hour, 2 hours, 4 hours, 8 hours and 12 hours post-dose. Blood samples were placed into tubes containing K2 EDTA anti-coagulant, and centrifuged at about 2,100 g (rcf) for 10 minutes at 4° C. to separate plasma. Following centrifugation, the resulting plasma was transferred to clean tubes and stored frozen at −80° C. The mouse plasma samples (50 μL) were aliquoted, spiked with internal standard (250 ng/mL tolbutamide), and then extracted with protein precipitation. The supernatant of each sample was diluted and injected into a LC-MS/MS system. The data acquisition and processing were performed using a Sciex API 5500 mass spectrometer with Analyst 1.6.2 software. The standard curve range for the plasma samples was analyzed using a calibration curve of 0.5-5000 ng/mL. The pharmacokinetic (PK) analysis and interpretation of the results were conducted using Winnonlin Phoenix Software.

A549 (KRAS^G12S) = test: Cell viability assay (384-well, Alamar blue); assay type: cell-based; conditions: Homo sapiens, Table 8, 48 hours
Procedure: (§1) All cell culture assays were incubated at 37° C., 5% CO2 in media containing Dulbecco's Modified Eagle Medium (DMEM) with 10% fetal bovine serum (FBS) and 1% penicillin-streptomycin (PS). 384-well format for EC50 determination: cells were trypsinized, counted, and seeded into 384-well plates at 1,000 cells/well. After 12-16 hours, compounds (as 50 mM stocks in DMSO) were arrayed in an 8- or 16-point dilution series in 384-well polypropylene plates. Compound solutions were transferred at a 1:5 dilution into the assay plates. After 48 hours, a 50% Alamar blue solution was added to a final concentration of 10% Alamar blue. After 6 hours of incubation, fluorescence intensity was determined using a Victor3 plate reader (Perkin Elmer) with a 535 nm excitation filter and a 590 nm emission filter. All compound measurements were performed in triplicate. For experiments performed in 6-well format, cells were trypsinized, counted, and seeded into 6-well plates at 200,000 cells per well 16 h prior to use. Media was then aspirated and replaced with 2 mL of media containing compounds at the indicated concentrations (from 10 mM stocks in DMSO). After 24 hours, cells were trypsinized and viability was determined using Trypan Blue exclusion assay.

H441 (KRAS^G12V) = test: Cell viability assay (384-well, Alamar blue); assay type: cell-based; conditions: Homo sapiens, NCI-H441, Table 8, 48 hours
Procedure: as §1

DLD1 (KRAS^Q61H) = test: Cell viability assay (384-well, Alamar blue); assay type: cell-based; conditions: Homo sapiens, DLD-1, Table 8, 48 hours
Procedure: as §1

H23 (KRAS^G12C) = test: Cell viability assay (384-well, Alamar blue); assay type: cell-based; conditions: Table 8, 48 hours
Procedure: as §1

H460 (KRAS^Q61H) = test: Cell viability assay (384-well, Alamar blue); assay type: cell-based; conditions: Homo sapiens, NCI-H460, Table 8, 48 hours
Procedure: as §1

H358 (KRAS^G12C) = test: Cell viability assay (384-well, Alamar blue); assay type: cell-based; conditions: Homo sapiens, NCI-H358, Table 8, 48 hours
Procedure: as §1

NC1(C(=O)NCCCn2cc(-c3ccc(OC(F)(F)F)cc3)c3cc(CN4CCN(Cc5c(Cl)cccc5Cl)CC4)ccc32)CCNCC1 [Compound 31MEW44, 4-amino-N-(3-(5-((4-(2,6-dichlorobenzyl)piperazin-1-yl)methyl)-3-(4-(trifluoromethoxy)phenyl)-1H-indol-1-yl)propyl)piperidine-4-carboxamide]
CMYC mRNA (BJeLR (HRAS^G12V) cells): dose-dependent reduction in CMYC mRNA
LDH expression (BJeLR (HRAS^G12V) cells): decreased these elevated levels of LDH, dose-dependently
MMP9 expression (BJeLR (HRAS^G12V) cells): Downregulation of MMP9 expression
DUSP6 and IDH2 expression profile (BJeLR (HRAS^G12V) cells; 5 μM and 25 μM): profile characteristic of decreased activation of RAS signaling
uPA expression (BJeLR (HRAS^G12V) cells; 5 μM and 25 μM): dose-dependent decrease in uPA expression
binding (GppNHp-loaded RHEB): no binding was observed
half-life ([1]; intravenous delivery, no elimination): > 12 h
half-life ([1]; oral delivery): 3.1 h
EC50 (A549 (KRAS^G12S)): 4.8 µM
EC50 (H441 (KRAS^G12V)): 4.9 µM
EC50 (DLD1 (KRAS^Q61H)): 8.8 µM
EC50 (H23 (KRAS^G12C)): 2.4 µM
EC50 (H460 (KRAS^Q61H)): 4.9 µM
EC50 (H358 (KRAS^G12C)): 2.8 µM
